Measurements from ChEMBL document CHEMBL1143228, “Inhibition of lipopolysaccharide-induced inducible nitric oxide synthase and cyclooxygenase-2 expression by xanthanolides isolated from Xanthium strumarium” (Bioorg Med Chem Lett, 2008).
Active and inactive are the calls of the source. The rule behind the calls is not given here.

Assays:
BV-2 [1] = test: Inhibition of NO production in LPS-activated mouse BV2 cells by […]; type: functional, cell-based
BV-2 [2] = test: Inhibition of COX2 expression in LPS-stimulated mouse BV2 cells after 20 hrs by Western blot analysis; type: functional, cell-based
BV-2 [3] = test: Inhibition of COX2 mRNA expression in LPS-stimulated mouse BV2 cells at 20 uM after 4 hrs by RT-PCR; type: functional, cell-based
BV-2 [4] = test: Inhibition of iNOS mRNA expression in LPS-stimulated mouse BV2 cells at 20 uM after 4 hrs by RT-PCR; type: functional, cell-based
BV-2 [5] = test: Inhibition of NF-kappaB activity in LPS-stimulated mouse BV2 cells at 10 uM after 1 hr by luciferase reporter gene assay; type: cell-based
BV-2 [6] = test: Inhibition of IkappaB alpha degradation in LPS-induced mouse BV2 cells at 20 uM after 30 mins by Western blot analysis; type: functional, cell-based
BV-2 [7] = test: Inhibition of iNOS expression in LPS-stimulated mouse BV2 cells at 20 uM after 20 hrs by Western blot analysis; type: functional, cell-based

IC50 (BV-2 [1]) | SMILES | Activity (BV-2 [2]) | Activity (BV-2 [3]) | Activity (BV-2 [4]) | Activity (BV-2 [5]) | Activity (BV-2 [6]) | Activity (BV-2 [7])
136 µM | C=C(C(=O)O)[C@H]1CC=C(/C=C/C(C)=O)[C@@H](C)CC1 | – | – | – | – | – | –
0.47 µM | C=C1C(=O)O[C@H]2C[C@H](C)C(/C=C/C(C)=O)=CC[C@H]12 | Active | Active | Active | Active | Active | Active
11.2 µM | C=C1C(=O)O[C@H]2C[C@H](C)C(CCC(C)=O)=CC[C@H]12 | Active | Active | Active | – | Active | Active
